Each structure is given as a SMILES string.

Holding throughout (assay type): cell-based
Test [1] has as its system Human colon cancer cell HCT-116. Description: CCK-8 cell proliferation assay, HCT116. To be noted: HCT116 cells, CCK-8, 24 hrs with drug, OD 450 nm. Here is the method: (§1) The effect of samples on the proliferation of human tumor cells in vitro was determined by CCK-8 cell proliferation assay.
(§2) The cells were assayed through a method including the following steps:
(§3) 1) The cells were digested, counted, and prepared into a cell suspension in a corresponding culture medium (Table 1) (5×10^4 cells/ml for CFPAC-1 and RPMI 8226, and 3.5×10^4 cells/ml for rest cells). The cell suspension was added to each well of a 96-well plate in 100 μl well.
(§4) 2) Then the 96-well plate was incubated for 24 hrs in an incubator at 37° C. and 5% CO2.
(§5) 3) The drug was diluted with the culture medium to the required working concentration. 100 μl of the corresponding drug containing medium was added to each well. A negative control group (added with drug-free culture medium) was also set.
(§6) 4) Then the 96-well plate was incubated for 24 hrs in an incubator at 37° C. and 5% CO2.
(§7) 5) The 96-well plate was stained with CCK-8, and The OD value was determined at λ=450 nm.
(§8) a) 10 μl of CCK-8 was added to each well, and incubated in the incubator for another 2-3 hrs.
(§9) b) The content was mixed uniformly by shaking gently on a shaker for 10 min, and the bubbles in the 96-well plate were removed.
(§10) 6) The inhibition rate in each group was calculated.
(Tetrazolium dyes change colour on reduction, which living cells bring about.)

In test [2] the test system is Human multiple myeloma cell RPMI 8226. Description: CCK-8 cell proliferation assay, RPMI8226. To be noted: RPMI8226 cells, CCK-8, 24 hrs with drug, OD 450 nm. How it is done: as §1, §2, §3, §4, §5, §6, §7, §8, §9, §10
Test [3] concerns Human hepatoma cell HepG2. Description: CCK-8 cell proliferation assay, HepG2. To be noted: HepG2 cells, CCK-8, 24 hrs with drug, OD 450 nm. How it is done: as §1, §2, §3, §4, §5, §6, §7, §8, §9, §10
Test [4] relates to Human esophageal cancer cell TE-1. Nature of the test: CCK-8 cell proliferation assay, TE-1. The settings on record: TE-1 cells, CCK-8, 24 hrs with drug, OD 450 nm. How it is done: as §1, §2, §3, §4, §5, §6, §7, §8, §9, §10
For test [5], the system named is Human lung adenocarcinoma cell A549. Description: CCK-8 cell proliferation assay, A549. To be noted: A549 cells, CCK-8, 24 hrs with drug, OD 450 nm. How it is done: as §1, §2, §3, §4, §5, §6, §7, §8, §9, §10
The subject of test [6] is Human pancreatic cancer cell CFPAC-1. Description: CCK-8 cell proliferation assay, CFPAC-1. To be noted: CFPAC-1 cells, CCK-8, 24 hrs with drug, OD 450 nm. Here is the method:
as §1, §2, §3, §4, §5, §6, §7, §8, §9, §10

For test [7], the system named is Human gastric cancer cell MKN45. Description: CCK-8 cell proliferation assay, MKN-45. To be noted: MKN-45 cells, CCK-8, 24 hrs with drug, OD 450 nm. How it is done: as §1, §2, §3, §4, §5, §6, §7, §8, §9, §10

By IC50 is commonly meant the concentration that inhibits the measured activity by half. Read a high IC50 as weaker potency. Take `O=C(NCCCCCC1CCN(C(=O)c2ccccc2)C1)Nc1ccncc1` (centres unmarked) [BSS-TP007, 1-(5-(1-(benzoyl)pyrrolidin-3-yl)pentyl)-2-(4-pyridinyl)urea]: the half-maximal inhibitory concentration (IC50) was determined as 33 nM in test [1]; 17 nM in test [2]; 69 nM in test [3]; 76 nM in test [4]; 31 nM in test [5]; 28 nM in test [6]. Besides, inhibition in test [7] was half-maximal at 57 nM (IC50).
As for `O=C(NCCCCCC1CCN(C(=O)c2cccs2)C1)Nc1ccncc1` (centres unmarked) [BSS-TP008, 1-(5-(1-(2-thienylformyl)pyrrolidin-3-yl)pentyl)-2-(4-pyridinyl)urea], the IC50 in test [1] is 77 nM; in test [2] it was 33 nM; in test [3], 51 nM; in test [4], 58 nM; in test [5], 55 nM; in test [6], 22 nM. Also, the midpoint of inhibition in test [7], the IC50, lay at 43 nM.
For the compound `COc1cccc(OC)c1C(=O)N1CCC(CCCCCNC(=O)Nc2ccncc2)C1` (centres unmarked) [BSS-TP009, 1-(5-(1-(2,6-dimethoxybenzoyl)pyrrolidin-3-yl)pentyl)-2-(4-pyridinyl) urea], the concentration for half-maximal inhibition (IC50) is 21 nM in test [1]; 26 nM in test [2]; 46 nM in test [3]; 49 nM in test [4]; 29 nM in test [5]; 39 nM in test [6]. The compound further returned an IC50 in test [7] of 63 nM.
With `O=C(NCCCCCC1CCN(C(=O)c2ccc[nH]2)C1)Nc1ccncc1` (centres unmarked) [BSS-TP010, 1-(5-(1-(2-pyrrolylformyl)pyrrolidin-3-yl)pentyl)-2-(4-pyridinyl)urea], the IC50 in test [1] worked out at 25 nM; in test [2] it was 20 nM; in test [3] it was 41 nM; in test [4], 42 nM; in test [5] it was 36 nM; in test [6], 38 nM. Also, the IC50 in test [7] was found to be 34 nM.
For the compound `O=C(NCCCCCC1CCN(C(=O)c2ccco2)C1)Nc1ccncc1` (centres unmarked) [BSS-TP011, 1-(5-(1-(furoyl)pyrrolidin-3-yl)pentyl)-2-(4-pyridinyl)urea], the IC50 in test [1] is 71 nM; in test [2], 32 nM; in test [3] it was 77 nM; in test [4] it was 81 nM; in test [5], 33 nM; in test [6] it was 29 nM. For the same compound, in test [7], the IC50 is 36 nM.
Turning to `O=C(NCCCCCC1CCN(C(=O)C2CCCO2)C1)Nc1ccncc1` (centres unmarked) [BSS-TP012, 1-(5-(1-(2-tetrahydrofurylformyl)pyrrolidin-3-yl)pentyl)-2-(4-pyridinyl)urea], the IC50 in test [1] is 51 nM; in test [2], 30 nM; in test [3], 124 nM; in test [4], 137 nM; in test [5] it was 67 nM; in test [6] it was 38 nM. The 50% inhibitory concentration (IC50) in test [7] came out at 59 nM.
In the case of `O=C(NCCCCCC1CCN(C(=O)C2CCCS2)C1)Nc1ccncc1` (centres unmarked) [BSS-TP013, 1-(5-(1-(2-tetrahydrothienylformyl)pyrrolidin-3-yl)pentyl)-2-(4-pyridinyl)urea], the IC50 in test [1] came to 68 nM; in test [2], 45 nM; in test [3], 133 nM; in test [4], 98 nM; in test [5], 81 nM; in test [6], 41 nM. Moreover, the half-maximal inhibitory concentration (IC50) in test [7] came to 73 nM.
With `O=C(NCCCCCC1CCN(C(=O)C2CCCN2)C1)Nc1ccncc1` (centres unmarked) [BSS-TP014, 1-(5-(1-(2-pyrrolidinylformyl)pyrrolidin-3-yl)pentyl)-2-(4-pyridinyl)urea], the half-maximal inhibitory concentration (IC50) is 62 nM in test [1]; 50 nM in test [2]; 89 nM in test [3]; 82 nM in test [4]; 117 nM in test [5]; 51 nM in test [6]. In test [7], this compound showed a 50% inhibitory concentration (IC50) of 91 nM.
In the case of `O=C(NCCCCCC1CCN(C(=O)c2ccccc2)C1)Nc1ccnc(F)c1` (centres unmarked) [BSS-TP015], the 50% inhibitory concentration (IC50) in test [1] stood at 43 nM; in test [2] it was 22 nM; in test [3], 39 nM; in test [4], 57 nM; in test [5], 31 nM; in test [6], 28 nM. In test [7], this compound displayed an IC50 of 33 nM.
Consider `COc1cccc(OC)c1C(=O)N1CCC(CCCCCNC(=O)Nc2ccnc(F)c2)C1` (centres unmarked) [BSS-TP016], for which the IC50 in test [1] stood at 41 nM; in test [2], 30 nM; in test [3] it was 59 nM; in test [4], 55 nM; in test [5], 30 nM; in test [6], 32 nM. Also, in test [7], the 50% inhibitory concentration (IC50) stood at 46 nM.
Turning to `O=C(NCCCCCC1CCN(C(=O)c2ccc[nH]2)C1)Nc1ccnc(F)c1` (centres unmarked) [BSS-TP017], the IC50 in test [1] came out at 57 nM; in test [2] it was 42 nM; in test [3], 77 nM; in test [4], 69 nM; in test [5], 41 nM; in test [6] it was 41 nM. In addition, the IC50 in test [7] worked out at 55 nM.
Regarding `O=C(NCCCCCC1CCN(C(=O)c2ccco2)C1)Nc1ccnc(F)c1` (centres unmarked) [BSS-TP018], the half-maximal inhibitory concentration (IC50) in test [1] came to 51 nM; in test [2], 38 nM; in test [3], 61 nM; in test [4], 88 nM; in test [5] it was 38 nM; in test [6], 33 nM. Besides, half-maximal inhibition in test [7] (IC50) required 39 nM.
Turning to `O=C(NCCCCCC1CCN(C(=O)c2cccs2)C1)Nc1ccnc(F)c1` (centres unmarked) [BSS-TP019], the half-inhibitory concentration (IC50) turned out to be 39 nM in test [1]; 44 nM in test [2]; 85 nM in test [3]; 132 nM in test [4]; 72 nM in test [5]; 49 nM in test [6]. In test [7], this compound gave an IC50 of 71 nM.
With `O=C(NCCCCCC1CCN(C(=O)C2CCCN2)C1)Nc1ccnc(F)c1` (centres unmarked) [BSS-TP020], the concentration for half-maximal inhibition (IC50) in test [1] stood at 47 nM; in test [2] it was 33 nM; in test [3], 49 nM; in test [4], 91 nM; in test [5] it was 93 nM; in test [6], 34 nM. The compound further yielded an IC50 in test [7] of 52 nM.
Regarding `O=C(NCCCCCC1CCN(C(=O)c2ccccc2)C1)Nc1cc(F)nc(F)c1` (centres unmarked) [BSS-TP021], the half-inhibitory concentration (IC50) in test [1] was 77 nM; in test [2], 42 nM; in test [3], 42 nM; in test [4], 65 nM; in test [5], 33 nM; in test [6] it was 31 nM. The same compound displayed an IC50 in test [7] of 65 nM.
Consider `O=C(NCCCCCC1CCN(C(=O)c2ccccc2)C1)Nc1cccnc1` (centres unmarked) [BSS-TP023, 1-(5-(1-(benzoyl)pyrrolidin-3-yl)pentyl)-2-(3-pyridinyl)urea], for which the IC50 in test [1] stood at 69 nM; in test [2], 42 nM; in test [3], 72 nM; in test [4] it was 102 nM; in test [5], 53 nM; in test [6], 46 nM. In test [7], this compound returned an IC50 of 76 nM.
Regarding `O=C(NCCCCCC1CCN(C(=O)c2cccs2)C1)Nc1cccnc1` (centres unmarked) [BSS-TP024, 1-(5-(1-(2-thienylformyl)pyrrolidin-3-yl)pentyl)-2-(3-pyridinyl)urea], the half-inhibitory concentration (IC50) in test [1] is 73 nM; in test [2], 49 nM; in test [3] it was 74 nM; in test [4] it was 111 nM; in test [5], 59 nM; in test [6] it was 39 nM. The same compound showed a concentration for half-maximal inhibition (IC50) in test [7] of 81 nM.
For `O=C(NCCCCCC1CCN(C(=O)c2cc3ccccc3[nH]2)C1)Nc1ccncc1` (centres unmarked) [BSS-TP025, 1-(5-(1-(2-indolylformyl)pyrrolidin-3-yl)pentyl)-2-(4-pyridinyl)urea], the IC50 in test [1] was found to be 54 nM; in test [2] it was 40 nM; in test [3], 77 nM; in test [4], 65 nM; in test [5] it was 62 nM; in test [6], 37 nM. The compound further had an IC50 in test [7] of 53 nM.
For the compound `O=C(NCCCCCC1CCN(C(=O)c2cc3ccccc3o2)C1)Nc1ccncc1` (centres unmarked) [BSS-TP026, 1-(5-(1-(2-benzofurylformyl)pyrrolidin-3-yl)pentyl)-2-(4-pyridinyl)urea], the IC50 in test [1] is 92 nM; in test [2] it was 51 nM; in test [3], 83 nM; in test [4], 72 nM; in test [5], 69 nM; in test [6], 42 nM. This compound also displayed an IC50 in test [7] of 71 nM.
As to `O=C(NCCCCCC1CCN(C(=O)C2Cc3ccccc3O2)C1)Nc1ccncc1` (centres unmarked) [BSS-TP027, 1-(5-(1-(2-benzotetrahydrofurylformyl)pyrrolidin-3-yl)pentyl)-2-(4-pyridinyl)urea], the IC50 was determined as 92 nM in test [1]; 55 nM in test [2]; 102 nM in test [3]; 93 nM in test [4]; 88 nM in test [5]; 59 nM in test [6]. This compound also registered a half-inhibitory concentration (IC50) in test [7] of 65 nM.

These data come from patent US12291515B2, “Pyrrolidine derivative and use thereof” (Rushi Biotech (Hangzhou) Co., Ltd, priority 2021, dated 2025).
